Results published in the supplement of paper PMC11208160.

Test: recombinant barcode read abundance after kanamycin selection (control-corrected) (log10(CPM+1)); higher = more efficient recombination; sequences stand for … in AGTGCAGAGAAAATCGGCCAGTTTTCTCTGCCTGCAGTCCGCATGCCGT…ATTTATGCAGCGGACTGCCTTTCTCCCAAAGTGATAAACCGGACAGTATCATGGACCGGTTTTCCCGGTAATCCGTATTTGCAAGGTTGGTTTCACT; site = the 11-nt target
Procedure, shortened: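 For this pooled screen, each oligo contained a promoter, a target, a barcode and the J23119-driven first 104 bases of the bridge RNA. Gibson cloning placed it into a vector supplying the remaining 73 bp and a T7-inducible recombinase, and the pool was co-electroporated into E. coli with a donor plasmid. Recombination efficiency is derived from barcode counts per million at recombinant junctions after averaging and control correction, and is expressed on a log scale as log10(CPM+1), with selection on chloramphenicol/ampicillin/kanamycin plus 0.1 mM IPTG against a chloramphenicol/ampicillin LB agar control.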

Q: Which “recombinant barcode read abundance (log10)” value does the source give for “TGATACCCTTGGGTTCTAACCTGTTGCGTAA [TGATACCCTAC_LTGcore_CT_RTGcore_TT] (site TGATACCCTAC) (LTG core: CT, RTG core: TT)” here?
A: 0.882

Q: With “TGATACCCTTGGGTTCTAACCTGTTGCGTAT [TGATACCCTAC_LTGcore_CT_RTGcore_AT] (site TGATACCCTAC) (LTG core: CT, RTG core: AT)” as the sequence, how does the “recombinant barcode read abundance (log10)” value read?
A: 0.624

Q: For “TGATACCTATGGGTTCTAACCTGTTGCGTAG [TGATACCCTAC_LTGcore_TA_RTGcore_CT] (site TGATACCCTAC) (LTG core: TA, RTG core: CT)”, which “recombinant barcode read abundance (log10)” value is on record?
A: 0.0864

Q: Which “recombinant barcode read abundance (log10)” value does the source give for “TGATACCTATGGGTTCTAACCTGTTGCGTTA [TGATACCCTAC_LTGcore_TA_RTGcore_TA] (site TGATACCCTAC) (LTG core: TA, RTG core: TA)” here?
A: 0.0463

Q: Which “recombinant barcode read abundance (log10)” value does the source give for “TGATACCTCTGGGTTCTAACCTGTTGCGTGA [TGATACCCTAC_LTGcore_TC_RTGcore_TC] (site TGATACCCTAC) (LTG core: TC, RTG core: TC)” here?
A: 0.0566

Q: Which “recombinant barcode read abundance (log10)” value does the source give for “TGATACCTTTGGGTTCTAACCTGTTGCGTAA [TGATACCCTAC_LTGcore_TT_RTGcore_TT] (site TGATACCCTAC) (LTG core: TT, RTG core: TT)” here?
A: 0.0482

Q: Which “recombinant barcode read abundance (log10)” value does the source give for “TGTATTCAATGGGTTCTAACCTGTTGCCTAG [TGTATTCCTAG_LTGcore_AA_RTGcore_CT] (site TGTATTCCTAG) (LTG core: AA, RTG core: CT)” here?
A: 0.0633

Q: For “TGTATTCAATGGGTTCTAACCTGTTGCCTTT [TGTATTCCTAG_LTGcore_AA_RTGcore_AA] (site TGTATTCCTAG) (LTG core: AA, RTG core: AA)”, which “recombinant barcode read abundance (log10)” value is on record?
A: 0.0627

Q: With “TGTATTCCCTGGGTTCTAACCTGTTGCCTAG [TGTATTCCTAG_LTGcore_CC_RTGcore_CT] (site TGTATTCCTAG) (LTG core: CC, RTG core: CT)” as the sequence, how does the “recombinant barcode read abundance (log10)” value read?
A: 0.168

Q: Which “recombinant barcode read abundance (log10)” value does the source give for “TGTATTCCTTGGGTTCTAACCTGTTGCCTCG [TGTATTCCTAG_LTGcore_CT_RTGcore_CG] (site TGTATTCCTAG) (LTG core: CT, RTG core: CG)” here?
A: 0.161

Q: For “TGTATTCCTTGGGTTCTAACCTGTTGCCTGA [TGTATTCCTAG_LTGcore_CT_RTGcore_TC] (site TGTATTCCTAG) (LTG core: CT, RTG core: TC)”, which “recombinant barcode read abundance (log10)” value is on record?
A: 0.0266

Q: For “TGTATTCCTTGGGTTCTAACCTGTTGCCTTC [TGTATTCCTAG_LTGcore_CT_RTGcore_GA] (site TGTATTCCTAG) (LTG core: CT, RTG core: GA)”, which “recombinant barcode read abundance (log10)” value is on record?
A: 0.0942

Q: With “TGTATTCGCTGGGTTCTAACCTGTTGCCTGC [TGTATTCCTAG_LTGcore_GC_RTGcore_GC] (site TGTATTCCTAG) (LTG core: GC, RTG core: GC)” as the sequence, how does the “recombinant barcode read abundance (log10)” value read?
A: 0.312

Q: For “TGTATTCTGTGGGTTCTAACCTGTTGCCTCA [TGTATTCCTAG_LTGcore_TG_RTGcore_TG] (site TGTATTCCTAG) (LTG core: TG, RTG core: TG)”, which “recombinant barcode read abundance (log10)” value is on record?
A: 0.205

Q: For “TTATAAAAGTGGGTTCTAACCTGTTGCCTAG [TTATAAACTAG_LTGcore_AG_RTGcore_CT] (site TTATAAACTAG) (LTG core: AG, RTG core: CT)”, which “recombinant barcode read abundance (log10)” value is on record?
A: 0.0357

Q: For “TTATAAACATGGGTTCTAACCTGTTGCCTAG [TTATAAACTAG_LTGcore_CA_RTGcore_CT] (site TTATAAACTAG) (LTG core: CA, RTG core: CT)”, which “recombinant barcode read abundance (log10)” value is on record?
A: 0.314

Q: With “TTATAAACGTGGGTTCTAACCTGTTGCCTAG [TTATAAACTAG_LTGcore_CG_RTGcore_CT] (site TTATAAACTAG) (LTG core: CG, RTG core: CT)” as the sequence, how does the “recombinant barcode read abundance (log10)” value read?
A: 0.111

Q: For “TTATAAACTTGGGTTCTAACCTGTTGCCTAA [TTATAAACTAG_LTGcore_CT_RTGcore_TT] (site TTATAAACTAG) (LTG core: CT, RTG core: TT)”, which “recombinant barcode read abundance (log10)” value is on record?
A: 0.0141

Q: Which “recombinant barcode read abundance (log10)” value does the source give for “TTATAAAGATGGGTTCTAACCTGTTGCCTAG [TTATAAACTAG_LTGcore_GA_RTGcore_CT] (site TTATAAACTAG) (LTG core: GA, RTG core: CT)” here?
A: 0.0604

Q: With “TTATAAAGTTGGGTTCTAACCTGTTGCCTAC [TTATAAACTAG_LTGcore_GT_RTGcore_GT] (site TTATAAACTAG) (LTG core: GT, RTG core: GT)” as the sequence, how does the “recombinant barcode read abundance (log10)” value read?
A: 0.0636

Q: With “TTATAAATGTGGGTTCTAACCTGTTGCCTCA [TTATAAACTAG_LTGcore_TG_RTGcore_TG] (site TTATAAACTAG) (LTG core: TG, RTG core: TG)” as the sequence, how does the “recombinant barcode read abundance (log10)” value read?
A: 0.0981
